Key:
[1] = tested on: non-tumor-bearing Fischer 344 rats; assay: Lethality (non-tumor bearing), within 7-10 days after administration; type: in vivo, Fischer 344 rat
Procedure: Lethality (Non-Tumor Bearing)
The toxicity was assessed by lethality within 7-10 days after administration of (R)-, (S)-, or (R,S)-ifosfamide in non-tumor-bearing Fischer 344 rats.

[2] = tested on: tumor-bearing F344 rats (MatB rat mammary carcinoma); assay: Lethality (tumor-bearing), toxic deaths; type: in vivo; conditions: for toxic deaths (of animals treated): tumor-bearing
Procedure: (§1) In order to help clarify the relative efficacies and toxicities of (S)-IFF and (R)-IFF, the effect of these enantiomers in F344 rats was investigated. Both non-tumor-bearing animals and those bearing a MatB rat mammary carcinoma were used in this study. The relative lethality, bone marrow suppression, weight loss, antitumor activity, and pharmacokinetics were determined for (R)-IFF, (S)-TFF and (R,S)-IFF.
Animal Model and Tumor Cells
(§2) MatB cells are maintained in vitro in α-minimum essential medium (GIBCO, Grand Island, N.Y.) supplemented with 1.3% sodium pyruvate, 2.6% glutamine, 1.3% non-essential amino acids, 10% fetal calf serum, and 100 units/ml gentamicin. Cells are maintained at 37° C. under 5% CO2. A suspension of 5×10^5 cells is injected s.c. into the flanks of female F344 rats weighing 160-200 g. Within 7-10 days, when there is a palpable nodule, the rats are lightly anesthetized with ether, and a single i.v. dose of ifosfamide is injected via the tail vein. The tumor size and animal weights are monitored every other day. On the basis of the conventional rat human dose conversion factor of 1:7 and idealised human body weights and surface areas of 70 kg and 1.5 m^2, the dose of 100 mg/kg in the rat represents approximately 600 mg/m^2 in humans, which is in the general range of clinical single doses, as described by De Kraker, supra. Statistical analysis was performed using an impaired Student's s test or Pearson's .chi.^2 analysis.
There were differences resulting in the presence of a tumor in these animals with regard to the effects of these treatments, and the data are therefore presented for each situation separately.

[3] = tested on: WBC; assay: Bone marrow suppression, WBC counts; type: in vivo, Fischer (F344) rat; conditions: for myelosuppression (WBC): 1 week after 125 mg/kg i.v.
Procedure: (§3) FIGS. 1A and 1B show peripheral blood counts obtained in tumor-bearing rats that received saline or ifosfamide treatment. […] There were 3-5 animals in each group. The following abbreviations etc. apply:
(§4) Determination of Myelotoxicity
(§5) For the studies of myelotoxicity, at least three animals/groups had blood obtained by cardiac puncture with a 23-gauge needle. The samples were heparinized and both WBC and platelet counts were determined using a Coulter Counter.
(§6) Measurements were made prior to and 1 week after i.v. injection of 125 mg/kg of (R,S)-, (R)-, or (S)-ifosfamide. […] In the presence of a tumor, the effects of a colony-stimulating factor are evidenced by higher WBC even prior to drug administration. Because the WBC progressively rises over time with exposure to the tumor, the intergroup variation in absolute WBC relates to differences in time from tumor inoculation to baseline WBC measurement and then drug administration.

[4] = tested on: platelets; assay: Bone marrow suppression, platelet counts; type: in vivo, Fischer (F344) rat; conditions: for thrombocytopenia: 1 week after 125 mg/kg i.v.
Procedure: as §3, §4, §5, §6

[5] = CNS toxicity monitoring in 7 female cancer patients; type: in vivo, human; conditions: racemate 3 g/m^2, 3 h infusion, mesna
Procedure: (§7) In a first investigation, the stereoselective urinary excretion of the parent drug, i.e. racemic ifosfamide, and its metabolites, was investigated. This followed a single dose of ifosfamide in 7 female cancer patients, while monitoring for CNS toxicity.
(§8) Patients received a 3 h infusion of ifosfamide (3 g/m^2) with mesna uroprotection, total urine output was collected for 27 h, and urine samples were analysed by enantioselective gas chromatography, as described by Granvil et al, J.Chromatogr. 622:21-31 (1993).
Since ifosfamide was the sole anti-cancer drug administered for the first chemotherapy cycle, toxicity data were not confounded by the effects of other anti-neoplastic agents.

[6] = tested on: childhood rhabdomyosarcoma (HxRh28); conditions: immunoincompetent female CBA/CaJ mice; cited from earlier work
[7] = single dose; cited from earlier work
[8] = cited from earlier work
[9] = Weight loss, every-other-day measurements; type: in vivo, F344 rat; conditions: 125 mg/kg
Procedure: as §2
Weight loss was determined by every-other-day measurements of groups of at least three rats.

[10] = tested on: MatB rat mammary carcinoma; assay: Antitumor efficacy in rats, enantiomer comparison; type: in vivo, Fischer (F344) rat; conditions: R-isomer; summary statement
Procedure: as §1
as §2, with “Statistical analysis was performed using an impaired Student's s test or Pearson's .chi.^2 analysis.” left out

[11] = Incubation with human liver microsomes, 2 and 3-dechlorometabolites by chiral assays; type: in vitro ADME; conditions: for 2 and 3-dechloro metabolites produced, R and S-ifosfamide incubated separately: separate enantiomers, compared with racemate results
[12] = Pharmacokinetics in rat plasma (GC-MS), AUC
[13] = Analysis of urine of 11 patients after 3 hour infusion of racemic ifosfamide; type: in vivo, human
Procedure: This is based on the results of the analysis of the urine of 11 patients who received a 3 hour infusion of racemic ifosfamide. Patients had not received chemotherapy for a year and ifosfamide was the only drug administered during the pharmacokinetic study.

[14] = Stereoselective urinary excretion of ifosfamide and metabolites in 7 female cancer patients; type: in vivo, human; conditions: patient with severe neurotoxicity vs 6 others
Procedure: as §7, §8
In patients with excessive N-dechloroethylation, R-ifosfamide could have an improved efficacy/toxicity.

[15] = CBA/CaJ mice; cited from earlier work
[16] = tested on: MatB subline selected for resistance to nitrogen mustards; assay: Melphalan resistance of MatB subline in vivo; parameters: species or system rat

## O=P1(NCCCl)OCCCN1CCCl (racemic) [(R,S)-IFF, ifosfamide, reference compound]
[1]; 150 mg/kg
  lethality (rats dead of rats treated): 2 of 4
[1]; 100 and 125 mg/kg
  lethality (rats dead of rats treated): 1 of 5
[2]; 100 mg/kg
  toxic deaths (of animals treated): 0 of 5
[2]; 125 mg/kg
  toxic deaths (of animals treated): 4 of 10
[2]; 150 mg/kg
  toxic deaths (of animals treated): 5 of 5
[3]; tumor-bearing rats
  myelosuppression (WBC): significant myelosuppression
[3]; tumor-free rats
  myelosuppression (WBC): myelosuppression is observed
[4]; non-tumor-bearing rats
  thrombocytopenia: significant thrombocytopenia
[5]; 7 female patients
  severe neurotoxic syndrome (patients): One patient had a severe neurotoxic syndrome
[5]; one patient
  neurotoxic symptoms: somnolence, dizziness, lethargy, tremors, and hallucinations
[6]
  efficacy against HxRh28 xenograft, difference between stereoisomers: no statistically significant differences
[7]
  compound metabolised through the N-dechloroethylation pathway: 15-50%
  drug excreted unchanged: 20-40%
[8]; oral formulation
  CNS side-effects: major dose-limiting side-effect
[8]; oral vs iv
  dose at which CNS side-effects appeared, oral versus iv: much lower dose
[8]; oral
  chloroacetaldehyde levels after oral dosing: higher levels of chloroacetaldehyde
  metabolism after oral dosing: much more metabolism

## O=[P@]1(NCCCl)OCCCN1CCCl [(R)-IFF, dexifosfamide]
[1]; 150 mg/kg
  lethality (rats dead of rats treated): 2 of 4
[1]; 100 and 125 mg/kg, listed as (R)-ifosfamide
  lethality (rats dead of rats treated): 1 of 5
[2]; 125 mg/kg, chi-square
  toxic deaths, compared to (R,S)-IFF: no difference
[2]; 125 mg/kg, chi-square, P=0.017
  toxic deaths, (R)-IFF compared to (S)-IFF: significant difference
[2]; 150 mg/kg, P=0.067
  toxic deaths, (R)-IFF versus either (S)-IFF or (R,S)-IFF: no significant difference
[2]; 100 mg/kg
  toxic deaths (of animals treated): 1 of 5
[2]; 125 mg/kg
  toxic deaths (of animals treated): 5 of 10
[2]; 150 mg/kg
  toxic deaths (of animals treated): 5 of 5
[3]; summary statement
  myelotoxicity in the Fischer rat: more myelotoxic
[3]; tumor-bearing rats
  myelosuppression (WBC): significant myelosuppression
[3]; tumor-free rats
  myelosuppression (WBC): myelosuppression is observed
[4]; non-tumor-bearing rats, 125 mg/kg i.v., P<0.05
  platelet suppression compared to (R,S)- or (S)-ifosfamide: greater platelet suppression
[4]; non-tumor-bearing rats
  thrombocytopenia: significant thrombocytopenia
[9]
  weight loss: appears greatest
  weight loss, statistical significance: significantly so only at one time point
[10]
  effectiveness in treating the tumors in the rats: trend to the R-isomer being more effective
[11]
  2 and 3-dechloro metabolites produced, R and S-ifosfamide incubated separately: broadly the same
[6]
  efficacy against HxRh28 xenograft, difference between stereoisomers: no statistically significant differences
[12]; rat
  clearance compared to (S)-IFF: cleared more quickly
[12]; rat plasma, 100 mg/kg i.v.
  AUC, AUCRS versus AUCR: no statistically significant difference
[12]; rat plasma, 100 mg/kg i.v., P<0.01
  AUC, AUCR versus AUCS: statistically significant differences
[12]; rat, inferred from AUC
  metabolism via the activation pathway, compared to (S)-IFF: metabolized to a greater degree

## O=[P@@]1(NCCCl)OCCCN1CCCl [(S)-IFF, levoifosfamide]
[1]; 150 mg/kg
  lethality (rats dead of rats treated): 0 of 4
[1]; 100 and 125 mg/kg, listed as (S)-ifosfamide
  lethality (rats dead of rats treated): 0 of 5
[2]; 125 mg/kg, chi-square
  toxic deaths, compared to (R,S)-IFF: no difference
[2]; 100 mg/kg
  toxic deaths (of animals treated): 0 of 5
[2]; 125 mg/kg
  toxic deaths (of animals treated): 2 of 10
[2]; 150 mg/kg, listed as (S)-ifosfamide
  toxic deaths (of animals treated): 3 of 5
[3]; tumor-bearing rats
  myelosuppression (WBC): no such effect after (S)-IFF where the WBC is higher
[3]; tumor-free rats
  myelosuppression (WBC): not statistically significant
[4]; non-tumor-bearing rats
  thrombocytopenia: significant thrombocytopenia
[4]; tumor-bearing rats, 125 mg/kg i.v.
  platelet suppression compared to (R)- or (R,S)-ifosfamide: significantly less
[13]
  origin of side-chain metabolites in urine: side-chain metabolites come from S-ifosfamide more than from R-ifosfamide
[14]
  excretion of dechloroethylated metabolites from S-ifosfamide: much higher excretion
[11]; racemic ifosfamide incubated
  2 and 3-dechloro metabolites produced, compared to R-ifosfamide: greater amounts
[11]
  2 and 3-dechloro metabolites produced, R and S-ifosfamide incubated separately: broadly the same
[6]
  efficacy against HxRh28 xenograft, difference between stereoisomers: no statistically significant differences
[15]
  plasma pharmacokinetics, differences: No statistically significant differences
[12]; stated with the rat AUC results
  metabolism via N-dechloroethylation, compared to (R)-IFF: metabolized to a greater extent

## N[C@@H](Cc1ccc(N(CCCl)CCCl)cc1)C(=O)O [melphalan]
[16]
  resistance to melphalan: at least 4 fold

Reference: US6037337A (priority 1994, dated 2000)
